This test has as its system intracerebral 9L gliomas. Description: In vivo therapy of glioma using Photofrin-containing nanoparticles with laser (diffusion MRI, Kaplan-Meier survival). The settings on record: 9L tumor rats, tail vein administration, FIG. 17. Details: species or system rat. The source says: Rats harboring intracerebral 9L gliomas, were allowed to grow to approximately 50 microliters in size, as quantitated using multi-slice T2-weighted MRI. Rats were divided into the following groups: sham (untreated); laser exposure only; intravenous administered photofrin (no nanoparticles); photofrin-encapsulated nanoparticles; and photofrin-encapsulated nanoparticles with F3 targeting (n=5/group). Diffusion MRI scans were obtained prior to treatment and every 2-3 days following treatment. Treatment with laser administration consisted of 750 mW of laser light administered at 630 nm for 7.5 minutes of total exposure time. This was accomplished through the same 1 mm diameter burr hole which was initially made to inject the 9L tumor cells to initiate tumor growth. The depth of the cylindrical laser tip was adjusted, based upon the MRI scan data, to be at the base of the tumor mass in order to optimize light delivery to the overall tumor mass. Diffusion MRI scans were acquired in order to assess in real time, the effectiveness of treatment. Increased diffusion values within the tumor mass reflect areas of cell kill (necrosis) and the magnitude of the increase is proportional to the level of cell killing. As shown in the MRI scans in FIG. 15, control diffusion tumor values are on average at approximately 100 apparent diffusion coefficient units (ADC).

In the case of Photofrin, the “survival times (Kaplan-Meier)” value is “no significant differences in survival times”.

These data come from patent US20050196343A1, “Degradable nanoparticles” (Molecular Therapeutics, Inc., priority 2004, published 2005).
